This note sets out measurements from the OligoGym collection.

Values joined by “and” are separate entries in the source; they are usually repeats but may differ in a detail not shown here. Equal entries are not always repeated. These antisense oligonucleotides have a phosphorothioate backbone; sugars and methylation of C are not fully specified. Some results are limits rather than exact numbers.
Note: test concentration or dose not given here.

The target of one data set is VCAM1. The note with it: ASO.
In turn, GGTATTCAGCTCCTGAAG returned a remaining target (mRNA or protein) (fraction of control) of 0.69.
Take GGTTCCAAAACCCTT: the remaining target (mRNA or protein) (fraction of control) turned out to be 0.42.
Regarding GTCTTTGTTGTTTTCTCTTCC, the remaining target (mRNA or protein) (fraction of control) is 0.41.
In the case of TGAACATATCAAGCATTAGC, the remaining target (mRNA or protein) (fraction of control) was 0.53.
Sequence TTACCATTGACATAAAGTGTT showed a remaining target (mRNA or protein) (fraction of control) of 0.52.
TTTAAGCAATCTTGCTATGGC displayed a remaining target (mRNA or protein) (fraction of control) of 0.81.
With TTTGTGTCCCACCTG, the remaining target (mRNA or protein) (fraction of control) turned out to be 0.1.

The target of the next data set is BIRC3. The note with it: ASO.
As for AAATCTTGATTTGCTCTG, the remaining target (mRNA or protein) (fraction of control) was 0.93.
The same measure, in the same setting: then AACATCATGTTCTTGTTC, with 0.91.
With AAGAAGGAGCACAATCTT, the remaining target (mRNA or protein) (fraction of control) stood at 0.3.
The same measure, in the same setting: for AATTGTTCTTCCACTGGT the value was at least 1; for ACCATATTTCACTGATTC, 0.3.
For ACTGAAGACATTTTGAAT, the remaining target (mRNA or protein) (fraction of control) turned out to be 0.38.
On the same count and under the same terms, for AGAGCCACGGAAATATCC the value was 0.91; for AGCAAGCCACTCTGTCTC, 0.5.
On the same count and under the same terms, then AGCAGGAAAAGTGGAATA, with at least 1; and ATATAACACAGCTTCAGC, with at least 1.
For ATTTGTTACTGAAGAAGG, the remaining target (mRNA or protein) (fraction of control) is at least 1.
As to ATTTTAATTAGAAGCACT, the remaining target (mRNA or protein) (fraction of control) was at least 1.
CAAACGTGTTGGCGCTTT: the remaining target (mRNA or protein) (fraction of control) was determined as 0.65.
The sequence CACAAGACCTAACTCAAA displayed a remaining target (mRNA or protein) (fraction of control) of 0.73.
CATGTCCCTAAAATGTCA came in with a remaining target (mRNA or protein) (fraction of control) of at least 1.
Sequence CCTTCGATGTATAGGACA showed a remaining target (mRNA or protein) (fraction of control) of at least 1.
In the case of CTAACTCAAAGGAGGAAA, the remaining target (mRNA or protein) (fraction of control) is at least 1.
CTGAAATTTTGATTGAAT showed a remaining target (mRNA or protein) (fraction of control) of 0.86.
Take CTTAGAGGTACGTAAAAT: the remaining target (mRNA or protein) (fraction of control) was 0.71.
As to CTTCTCCAGGCTACTAGA, the remaining target (mRNA or protein) (fraction of control) amounted to 0.5.
GAAACCAAATTAGGATAA: the remaining target (mRNA or protein) (fraction of control) came out at 0.88.
GCACTTTTATTTCTTAGA showed a remaining target (mRNA or protein) (fraction of control) of 0.3.
GCAGCATTAATCACAGGA had a remaining target (mRNA or protein) (fraction of control) of at least 1.
The same measure, in the same setting: then GCATGGCTTTGCTTTTAT, with at least 1; and GCTCTGCTGTCAAGTGTT, with 0.43.
Regarding GGGTCTCAGTATGCTGCC, the remaining target (mRNA or protein) (fraction of control) was 0.79.
In turn, GGTCAACTTCTCCAGGCT came in with a remaining target (mRNA or protein) (fraction of control) of 0.35.
Take GTAAGTAATCTGGCATTT: the remaining target (mRNA or protein) (fraction of control) was at least 1.
The same measure, in the same setting: for TAAAACCCTTCACAGAAG the value was at least 1; for TACAATTTCAATAATGCT, 0.62; for TCATCTCCTGGGCTGTCT, 0.6.
As for TGAAGTGTCTTGAAGCTG, the remaining target (mRNA or protein) (fraction of control) is at least 1.
Still for that read-out and setting: for TGGCTTGAACTTGACGGA the value was at least 1; for TGTAGTGCTACCTCTTTT, 0.31.

In another data set the target is TNF. The note with it: ASO.
The sequence AAACTTACCTACGACGTGGGC displayed a remaining target (mRNA or protein) (fraction of control) of at least 1.
Sequence AAAGCTTTAAGTCCCCCGCCC had a remaining target (mRNA or protein) (fraction of control) of 0.25.
Regarding AATAATAAATAATAAATAAAT, the remaining target (mRNA or protein) (fraction of control) was at least 1.
For the sequence ACACTTACTGAGTGTGAGGGT, the remaining target (mRNA or protein) (fraction of control) is at least 1.
ACTTTCCCAGCAGGTATTTGG: the remaining target (mRNA or protein) (fraction of control) was determined as 0.88.
Consider AGAGCCACAATTCCCTTTCTA, for which the remaining target (mRNA or protein) (fraction of control) worked out at 0.2.
The sequence AGGCTCCTGTTTCCGGGGAGA came in with a remaining target (mRNA or protein) (fraction of control) of at least 1.
The sequence AGGGAAGGAAGGAAGGAAGGG registered a remaining target (mRNA or protein) (fraction of control) of at least 1.
The same measure, in the same setting: then AGTGAGTTCCGAAAGCCCATT, with 0.94; and ATTTGGAATTCCCAGAGTGGG, with at least 1.
The sequence CAGTCACGGCTCCCGTGGG registered a remaining target (mRNA or protein) (fraction of control) of 0.91.
Turning to CAGTCTGGGAAGCTCTGAGGG, the remaining target (mRNA or protein) (fraction of control) was at least 1.
CATTTCTTTTCCAAGCGAAC: the remaining target (mRNA or protein) (fraction of control) turned out to be 0.94.
CCCTTAGGTTTCCCAGCAAGC showed a remaining target (mRNA or protein) (fraction of control) of 0.38.
Take CCGTGCTCATGGTGTCCTTTC: the remaining target (mRNA or protein) (fraction of control) came to 0.51.
Consider CCTATTCCCTTTCCTCCCAAA, for which the remaining target (mRNA or protein) (fraction of control) was found to be 0.14.
CCTCGCTGAGTTCTGCCGGCT: the remaining target (mRNA or protein) (fraction of control) was found to be 0.99.
For the sequence CCTCTTTCCCTTACCCTCCTG, the remaining target (mRNA or protein) (fraction of control) was found to be 0.1.
Consider CTGGTCCCTTGGTGTCCTCGC, for which the remaining target (mRNA or protein) (fraction of control) was determined as 0.69.
Sequence CTGGTCTTTCCACGTCCCATT yielded a remaining target (mRNA or protein) (fraction of control) of 0.17.
CTTCTTCCCTGTTCCCCTGGC yielded a remaining target (mRNA or protein) (fraction of control) of 0.2.
Still for that read-out and setting: for CTTGAGCTCAGCTCCCTCAGG the value was 0.45; for GAAGCCTCCCCGCTCTTTGCC, 0.25.
The sequence GATCATGCTTTCCGTGCTCAT had a remaining target (mRNA or protein) (fraction of control) of 0.94.
Same read-out and setting: then GCAGCCTTGTCCCTTGAAGAG, with 0.73; and GCCTGAAGACAGCTTCCCAAC, with 0.24.
Sequence GCTGAGCAGGTCCCCCTTCTC had a remaining target (mRNA or protein) (fraction of control) of 0.8.
With GCTGGAAGACTCCTCCCAGGT, the remaining target (mRNA or protein) (fraction of control) was determined as 0.35.
For GGCACTCACCTCCTCCTTGTT, the remaining target (mRNA or protein) (fraction of control) worked out at 0.94.
On to GGGAAATTCCCAGGACCAGGG, for which the remaining target (mRNA or protein) (fraction of control) was at least 1.
As for GGGATAGCTGGTAGTTTAG, the remaining target (mRNA or protein) (fraction of control) was at least 1.
Still for that read-out and setting: for GGTCTCCCTCCCCAACTCTCC the value was 0.18; for GGTTCCGTAAGGAAGGCTGG, 0.94.
The sequence GTCGCCTCACAGAGCAATGAC gave a remaining target (mRNA or protein) (fraction of control) of at least 1.
Sequence GTTTCCCCTCCATCTCCCTCC registered a remaining target (mRNA or protein) (fraction of control) of 0.26.
In turn, TAGACGATAAAGGGGTCAGAG had a remaining target (mRNA or protein) (fraction of control) of at least 1.
With TATCTCCCTCGTCTCCCATCT, the remaining target (mRNA or protein) (fraction of control) was found to be 0.27.
Take TCCACTCCCCCGATCCACTCA: the remaining target (mRNA or protein) (fraction of control) came out at 0.11.
On the same count and under the same terms, for TGATCCACTCCCCCCTCCACT the value was 0.06 and 0.1; for TTCCCAACGCTGGGTCCTCCA, at least 1.
As to TTCTTGCCCTCCCTCCCTACT, the remaining target (mRNA or protein) (fraction of control) was 0.12.
TTGCTGTTCTCCCTCCTGGCT: the remaining target (mRNA or protein) (fraction of control) worked out at 0.15.
